Data set [1] addresses recombinant G547 IRE1α KEN domain (Homo sapiens, UniProt O75460). Briefly: IRE1α S724 autophosphorylation assay (DELFIA). The settings on record: read-out: IRE1a autophosphorylation inhibition (DELFIA IC50 nM). It counts as biochemical.
Data set [2] relates to HEK293 cells stably expressing an XBP1u-luciferase mRNA reporter. The note with it: read-out: HEK293 cytotoxicity (CellTitreBlue) IC50.
In data set [3] the target is recombinant dephosphorylated G547 IRE1α KEN domain (Homo sapiens, UniProt O75460). Nature of the data set: IRE1α ATP-site binding assay (LanthaScreen tracer displacement). The note with it: read-out: IRE1a ATP site binding (LanthaScreen IC50 nM). On the technique in general: In TR-FRET formats the signal depends on donor and acceptor labels being close together.
Sequence of recombinant dephosphorylated G547 IRE1α KEN domain (O75460 547-977): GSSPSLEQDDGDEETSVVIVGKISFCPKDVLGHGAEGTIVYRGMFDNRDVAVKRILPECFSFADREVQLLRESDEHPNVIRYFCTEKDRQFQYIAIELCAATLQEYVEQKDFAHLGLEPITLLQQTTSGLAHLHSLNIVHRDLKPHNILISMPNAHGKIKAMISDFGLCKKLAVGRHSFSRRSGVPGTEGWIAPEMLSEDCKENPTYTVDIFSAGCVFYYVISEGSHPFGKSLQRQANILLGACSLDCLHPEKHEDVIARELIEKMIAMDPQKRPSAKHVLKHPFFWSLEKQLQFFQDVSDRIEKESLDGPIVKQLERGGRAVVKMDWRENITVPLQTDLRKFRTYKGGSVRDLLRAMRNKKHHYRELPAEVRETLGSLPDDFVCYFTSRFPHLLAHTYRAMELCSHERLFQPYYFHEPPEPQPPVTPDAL
The subject of data set [4] is IRE1α-dependent splicing of XBP1u-luciferase mRNA reporter in HEK293 cells. Nature of the data set: XBP1 luciferase fusion mRNA splicing reporter in HEK293 cells. Type of data set: cell-based, human. The note with it: HEK293TN; read-out: XBP1 reporter cleavage in HEK293TN IC50.

Sequence of recombinant G547 IRE1α KEN domain (O75460 547-977): as above

The IC50 is the concentration that gives 50% inhibition. In the case of `Fc1cc(F)cc(Cn2cc(-c3ccnc4[nH]cnc34)cn2)c1` [Control A, 7-(1-(3,5-difluorobenzyl)-1H-pyrazol-4-yl)-3H-imidazo[4,5-b]pyridine, reference compound], the IC50 is 3110 nM in data set [1], > 50 µM in data set [2], 3280 nM in data set [3] and 6.2 µM in data set [4].
Turning to `CC(C)Nc1cc(Cl)nn2c(-c3ccc4[nH]ncc4c3)cnc12` [compound 33], the IC50 in data set [1] amounted to 276 nM; in data set [3], 736 nM.

The values are drawn from article PMC6437697 (Journal of Medicinal Chemistry, 2019).
